Data as given in patent US12059230B2, “Extending fluorescent assays in vivo for biomedical sensing: wavelength modulation spectroscopy” (MASSACHUSETTS INSTITUTE OF TECHNOLOGY, priority 2019, dated 2024).

Tests used:
[1] = In vitro hydrogel dynamics: sensor response fitted to the diffusion equation; type: physicochemical; conditions: 10×10×2 mm^3 gel with 20 mg/l (AC)15-SWNTs, 100 μM riboflavin
Protocol: FIG. 33 depicts in vitro hydrogel dynamics. […] The black curve represents the measured data, while the red line is a fit to the diffusion equation, yielding a diffusion constant of 1.04×10^−6 cm^2/s.
Hydrogel preparation. The nanotube embedded hydrogels were prepared using polyethylene glycol diacrylate from Alfa Aesar using a PEG chain length of 8000 Da (PEG8000DA). The UV triggered initiator was 2-hydroxy-4′-(2-hydroxyethoxy)-2-methylpropiophenone from Sigma Aldrich and was dissolved in a stock solution of 7 mg/mL in water before polymerization. […] The hydrogel precursor solution is held under a flowing N2 atmosphere for 30 minutes to remove dissolved oxygen. After degassing, the solution is pipetted into glass molds and returned to the nitrogen atmosphere. The molds are then exposed to 365 nm UV light (UVP Blak-Ray XX-15BLB) for 45 minutes to polymerize. Afterwards, the hydrogels were removed from the molds and left to incubate in 1×PBS overnight to remove any unreacted monomer to free-floating SWNT. Then the PBS solution was exchanged to a fresh solution and the hydrogels were ready to use.
The interaction between an analyte and the hydrogel sensor is further described with analyte diffusion. The mathematical model solves the following nondimensionalized unsteady diffusion model and boundary conditions: […]

[2] = In vivo sensor response to riboflavin injection in SKH1-E mouse (intraperitoneal implant); conditions: 300 μM riboflavin injected through catheter
Excerpt: FIGS. 5A-5H depict in vivo sensing. […] Scale bars are 5 mm. […] Sham stands for gels without a sensor, flipped configuration represents a mouse laying on its back with the signal passing through the full thickness of the animal body. […] The scale bar is 5 mm. […] The single laser excitation was at 730 nm. WIFF system was modulated at 2 Hz between 680, 730, and 780 nm. The emission collection was at >1100 nm.
FIGS. 32A-32B depict sensing experiments with mice. […] Five replicas on biologically independent animals. Sensors (10×10×2 mm^3 gel with 20 mg/l (AC)15-SWNTs)) were implanted into the intraperitoneal space of mice. […] The time t=0 corresponds to the time of injection.
The ultimate goal of fluorescent sensing is to detect analytes in vivo at the implantation point and wirelessly transmit the signal to the surface of the body. […] These types of measurements are critical for many biomedical problems focused on tissue permeability, such as targeted delivery of therapeutics, and changes in vascular permeability related to disorders, either as the origin or manifestation of various diseases. […]

Cc1cc2nc3c(=O)[nH]c(=O)nc-3n(C[C@H](O)[C@H](O)[C@H](O)CO)c2cc1C [riboflavin]
diffusion constant in the hydrogel [1]: 1.04×10^−6 cm^2/s | onset time of quenching after the injection [2]: 51 s | sensor quenching ([2]; intraperitoneal sensor, WIFF): 17%
